{
  "source": "ChEMBL document CHEMBL3875182",
  "about": "(Bioorg Med Chem, 2017)",
  "key": {"[1]": {"test_system": "Mycobacterium tuberculosis", "assay": "Antibacterial activity against isoniazid/rifampin-resistant Mycobacterium tuberculosis after 8 to 9 days by BacT/Alert MP bottle assay", "format": "functional"}, "[2]": {"test_system": "Mycobacterium tuberculosis", "assay": "Antibacterial activity against rifampin-resistant Mycobacterium tuberculosis after 8 to 9 days by BacT/Alert MP bottle assay", "format": "functional"}},
  "data": [
    {"smiles": "COc1ccc(C2=Nn3c(nnc3-c3ccncc3)SC2)cc1", "values": [
      {"measurement": "MIC", "setting": "[1]", "value": 4, "unit": "µg/mL"},
      {"measurement": "MIC", "setting": "[2]", "value": 2, "unit": "µg/mL"}
    ]},
    {"smiles": "O=[N+]([O-])c1ccc(C2=Nn3c(nnc3-c3ccc(Br)cc3)SC2)cc1", "values": [
      {"measurement": "MIC", "setting": "[1]", "value": 2, "unit": "µg/mL"},
      {"measurement": "MIC", "setting": "[2]", "value": 0.25, "unit": "µg/mL"}
    ]},
    {"smiles": "c1ccc(C2=Nn3c(nnc3-c3ccccc3)SC2)cc1", "values": [
      {"measurement": "MIC", "setting": "[1]", "value": 4, "unit": "µg/mL"},
      {"measurement": "MIC", "setting": "[2]", "value": 2, "unit": "µg/mL"}
    ]},
    {"smiles": "O=[N+]([O-])c1ccc(C2=Nn3c(Cc4ccc5ccccc5c4)nnc3SC2)cc1", "values": [
      {"measurement": "MIC", "setting": "[1]", "value": 4, "unit": "µg/mL"},
      {"measurement": "MIC", "setting": "[2]", "value": 4, "unit": "µg/mL"}
    ]},
    {"smiles": "O=[N+]([O-])c1ccc(C2=Nn3c(nnc3-c3ccncc3F)SC2)cc1", "values": [
      {"measurement": "MIC", "setting": "[1]", "value": 4, "unit": "µg/mL"},
      {"measurement": "MIC", "setting": "[2]", "value": 2, "unit": "µg/mL"}
    ]},
    {"smiles": "Fc1ccc(-c2nnc3sc(COc4ccccc4)nn23)cc1", "values": [
      {"measurement": "MIC", "setting": "[1]", "value": 8, "unit": "µg/mL"},
      {"measurement": "MIC", "setting": "[2]", "value": 8, "unit": "µg/mL"}
    ]},
    {"smiles": "Brc1ccc(-c2nnc3n2N=C(c2ccccc2)CS3)cc1", "values": [
      {"measurement": "MIC", "setting": "[1]", "value": 2, "unit": "µg/mL"},
      {"measurement": "MIC", "setting": "[2]", "value": 1, "unit": "µg/mL"}
    ]},
    {"smiles": "NNC(=O)c1ccncc1", "note": "[ISONIAZID]", "values": [
      {"measurement": "MIC", "setting": "[1]", "value": 4, "unit": "µg/mL"},
      {"measurement": "MIC", "setting": "[2]", "value": 1, "unit": "µg/mL"}
    ]},
    {"smiles": "CO[C@H]1/C=C/O[C@@]2(C)Oc3c(C)c(O)c4c(O)c(c(/C=N/N5CCN(C)CC5)c(O)c4c3C2=O)NC(=O)/C(C)=C\\C=C\\[C@H](C)[C@H](O)[C@@H](C)[C@@H](O)[C@@H](C)[C@H](OC(C)=O)[C@@H]1C", "note": "[RIFAMPIN]", "values": [
      {"measurement": "MIC", "setting": "[1]", "value": "≥ 16", "unit": "µg/mL"},
      {"measurement": "MIC", "setting": "[2]", "value": 16, "unit": "µg/mL"}
    ]}
  ]
}
